Laboratory results: patent US7517949B2, “Livin-derived peptides, compositions and uses thereof” (Hadasit Medical Research Services & Development Ltd., priority 2003, dated 2009)

Experiments:
Format in all cases: cell-based, human
LB33 Mel A1 cells = test: Etoposide-induced apoptosis, nuclear morphology, LB33 Mel A1; details: Mel A1, no Livin expression; etoposide 15 μg/ml
Method: (§1) (b) Melanoma cell lines LB33 Mel A1 and B1 were treated with etoposide (15 μg/ml). Apoptosis rate was determined by nuclear morphology, as described.
(§2) Nuclear morphology was visualized using acridin orange (Sigma) staining as described [Loo, D. T. et al. (1998) Methods Cell Biol., 57: 251-264]. […] The percentage of apoptotic to viable cells was counted by fluorescence microscopy and 500 cells were scored for each sample. Flow cytometry analysis of the apoptotic cells was done using two different methods. In the Sub-G1 assay the cells were harvested, washed with PBS and fixed using 100% methanol. […] Cells transfected with a GFP-containing plasmid were analyzed using Annexin-V-Cy5 and PI staining according to the manufacturer instructions (MBL, Japan). In stably transfected cultures with a rate of GFP-positive cells higher than 95%, all cells were analyzed for apoptosis. In transiently transfected cells, GFP expression was first analyzed (FL-1), and only GFP-positive cells were analyzed for Annexin-V-Cy5 (FL-4) and PI (FL-3) staining.
(§3) LB33 A1 and B1 are two metastatic melanoma cell lines derived from the same patient before and after vaccination with autologous melanoma cells [Ikeda, H. et al. (1997) Immunity 6: 199-208; Lehmann, F. et al. (1995) Eur. J. Immunol. […] PARP was detected in all samples, confirming similar protein content.

primary melanoma cells = test: Etoposide-induced apoptosis in primary melanoma cultures (nuclear morphology); details: etoposide 15 μg/ml, 24 and 48 hours
Method: FIG. 8b: Six samples were selected according to the level of Livin expression (high: 5556, 55112, moderate: 5524, 55164, or undetectable: 5530, 5533). […] Apoptosis rate was determined by nuclear morphology, as described. The data shown are representative of three independent experiments, which were also confirmed by flow cytometry, using sub-G1 assay.
Primary melanoma cells were derived and maintained as described [Lotem, M. et al. (2002) Br J Cancer, 86: 1534-1539].
Nuclear morphology was visualized using acridin orange (Sigma) staining as described [Loo, D. T. et al. (1998) Methods Cell Biol., 57: 251-264]. […] The percentage of apoptotic to viable cells was counted by fluorescence microscopy and 500 cells were scored for each sample. Flow cytometry analysis of the apoptotic cells was done using two different methods. In the Sub-G1 assay the cells were harvested, washed with PBS and fixed using 100% methanol. Following an overnight incubation at −20° C., cells were re-hydrated with PBS for 30 minutes on ice, and then resuspended in PBS with RNase A (50 μg/ml) and stained with Propidium Iodide (PI) (Sigma) at a final concentration of 5 μg/ml. Flow cytometry analysis was performed in FL2 histogram. Cells transfected with a GFP-containing plasmid were analyzed using Annexin-V-Cy5 and PI staining according to the manufacturer instructions (MBL, Japan). In stably transfected cultures with a rate of GFP-positive cells higher than 95%, all cells were analyzed for apoptosis. In transiently transfected cells, GFP expression was first analyzed (FL-1), and only GFP-positive cells were analyzed for Annexin-V-Cy5 (FL-4) and PI (FL-3) staining.
In order to determine whether Livin expression renders the melanoma cells resistant to chemotherapy, six melanoma samples were selected, according to their Livin expression. […] After 24 and 48 hours, cells were harvested and the percent of apoptosis determined in each sample by nuclear morphology (FIG. 8b). […]

LB33 Mel B1 cells = test: Etoposide-induced apoptosis, nuclear morphology, LB33 Mel B1; details: Mel B1, high levels of Livin; etoposide 15 μg/ml
Method: as §1, §2, §3

## COc1cc([C@@H]2c3cc4c(cc3[C@@H](O[C@@H]3O[C@@H]5CO[C@@H](C)O[C@H]5[C@H](O)[C@H]3O)[C@H]3COC(=O)[C@H]23)OCO4)cc(OC)c1O [etoposide]
LB33 Mel A1 cells
  response to etoposide (apoptosis by nuclear morphology): rapidly underwent apoptosis
Primary melanoma cells; samples 5524 and 55164, intermediate Livin
  moderate resistance (percent of apoptosis): 15-25%
Primary melanoma cells; samples 5533 and 5530, no Livin expression
  apoptosis rate: up to 55%
Primary melanoma cells; samples 5556 and 55112, high Livin expression
  resistance to etoposide: completely resistant
LB33 Mel B1 cells
  response to etoposide (apoptosis by nuclear morphology): completely resistant
